Experimental data: paper PMC11951252 (RSC Advances, 2025)

How the values were obtained:
MCF-7 = assay: Antiproliferative MTT assay, MCF-7; assay type: cell-based, human; conditions: Homo sapiens, MCF7, read-out: Antiproliferative activity IC50 ± SEM, MCF-7
HCT-116 = assay: Antiproliferative MTT assay, HCT-116; assay type: cell-based; conditions: Homo sapiens, HCT-116, read-out: Antiproliferative activity IC50 ± SEM, HCT-116
PC-3 = assay: Antiproliferative MTT assay, PC-3; assay type: cell-based; conditions: Homo sapiens, PC-3, read-out: Antiproliferative activity IC50 ± SEM, PC-3

SMILES | IC50 (MCF-7) | IC50 (HCT-116) | IC50 (PC-3)
COc1cc(C=CC(=O)c2ccc(NC(=O)CN3CCN(c4ccc(Cl)cc4)CC3)cc2)cc(OC)c1OC [4k, 2-(4-(4-Chlorophenyl)piperazin-1-yl)-N-(4-(3-(3,4,5-trimethoxyphenyl)acryloyl)phenyl)acetamide] | 17.9 ± 1.4 µM | 34.8 ± 2.2 µM | 42.9 ± 2.5 µM
COc1ccc(N2CCN(CC(=O)Nc3ccc(C(=O)C=Cc4ccc(C)cc4)cc3)CC2)cc1 [4b, 2-(4-(4-Methoxyphenyl)piperazin-1-yl)-N-(4-(3-(p-tolyl)acryloyl)phenyl)acetamide] | 65.5 ± 3.5 µM | 79.6 ± 3.8 µM | 32 ± 2.1 µM
CC(=O)N1N=C(c2ccc(NC(=O)CN3CCN(c4ccc(Cl)cc4)CC3)cc2)CC1c1ccccc1 (stereo not drawn) [5h, N-(4-(1-Acetyl-5-phenyl-4,5-dihydro-1H-pyrazol-3-yl)phenyl)-2-(4-(4-chloro-phenyl)piperazin-1-yl)acetamide] | 85.4 ± 4.6 µM | 74.9 ± 4.1 µM | 87.6 ± 4.3 µM
COc1ccc(N2CCN(CC(=O)Nc3ccc(C4=NN(C(C)=O)C(c5ccc(Br)cc5)C4)cc3)CC2)cc1 (stereo not drawn) [5e, N-(4-(1-Acetyl-5-(4-bromophenyl)-4,5-dihydro-1H-pyrazol-3-yl)phenyl)-2-(4-(4-methoxyphenyl)piperazin-1-yl)acetamide] | 15.2 ± 1.3 µM | 26.8 ± 2 µM | 29.6 ± 1.9 µM
CC(=O)N1N=C(c2ccc(NC(=O)CN3CCN(c4ccc(Cl)cc4)CC3)cc2)CC1c1ccc(C)cc1 (stereo not drawn) [5i, N-(4-(1-Acetyl-5-(p-tolyl)-4,5-dihydro-1H-pyrazol-3-yl)phenyl)-2-(4-(4-chloro-phenyl)piperazin-1-yl)acetamide] | 54.7 ± 3.1 µM | 62.5 ± 3.4 µM | 67.8 ± 3.6 µM
COc1ccc(C=CC(=O)c2ccc(NC(=O)CN3CCN(c4ccc(Cl)cc4)CC3)cc2)cc1 [4j, 2-(4-(4-Chlorophenyl)piperazin-1-yl)-N-(4-(3-(4-methoxyphenyl)acryloyl)phenyl)acetamide] | 42.9 ± 2.5 µM | 27.4 ± 1.9 µM | 66.8 ± 3.5 µM
O=C(CN1CCN(c2ccc(Cl)cc2)CC1)Nc1ccc(C(=O)C=Cc2ccccc2)cc1 [4h, 2-(4-(4-Chlorophenyl)piperazin-1-yl)-N-(4-cinnamoylphenyl)acetamide] | 41.3 ± 2.4 µM | 49.6 ± 2.8 µM | 20.4 ± 1.5 µM
COc1ccc(N2CCN(CC(=O)Nc3ccc(C(=O)C=Cc4ccccc4)cc3)CC2)cc1 [4a, N-(4-Cinnamoylphenyl)-2-(4-(4-methoxyphenyl)piperazin-1-yl)acetamide] | 72.4 ± 3.7 µM | 68.6 ± 3.7 µM | 78.2 ± 4 µM
COc1ccc(N2CCN(CC(=O)Nc3ccc(C(=O)C=Cc4ccc(Br)cc4)cc3)CC2)cc1 [4e, N-(4-(3-(4-Bromophenyl)acryloyl)phenyl)-2-(4-(4-methoxyphenyl)piperazin-1-yl)acetamide] | 52.5 ± 2.9 µM | 64.8 ± 3.5 µM | 73.9 ± 3.8 µM
COc1ccc(C=CC(=O)c2ccc(NC(=O)CN3CCN(c4ccc(OC)cc4)CC3)cc2)cc1 [4c, N-(4-(3-(4-Methoxyphenyl)acryloyl)phenyl)-2-(4-(4-methoxyphenyl)piperazin-1-yl)acetamide] | 28.3 ± 1.8 µM | 18.1 ± 1.4 µM | 34.5 ± 2.1 µM
COc1ccc(N2CCN(CC(=O)Nc3ccc(C4=NN(C(C)=O)C(c5ccc(Cl)cc5Cl)C4)cc3)CC2)cc1 (stereo not drawn) [5f, N-(4-(1-Acetyl-5-(2,4-dichlorophenyl)-4,5-dihydro-1H-pyrazol-3-yl)phenyl)-2-(4-(4-methoxyphenyl)piperazin-1-yl)acetamide] | 47.5 ± 2.6 µM | 54 ± 3.2 µM | 57.8 ± 3.3 µM
COc1ccc(N2CCN(CC(=O)Nc3ccc(C(=O)C=Cc4cc(OC)c(OC)c(OC)c4)cc3)CC2)cc1 [4d, 2-(4-(4-Methoxyphenyl)piperazin-1-yl)-N-(4-(3-(3,4,5-trimethoxyphenyl)acryloyl)phenyl)acetamide] | 24.2 ± 1.7 µM | 29.1 ± 1.9 µM | 61.4 ± 3.5 µM
O=C(CN1CCN(c2ccc(Cl)cc2)CC1)Nc1ccc(C(=O)C=Cc2ccc(Cl)cc2Cl)cc1 [4m, 2-(4-(4-Chlorophenyl)piperazin-1-yl)-N-(4-(3-(2,4dichlorophenyl)acryloyl)phenyl)acetamide] | 35.8 ± 2.2 µM | 44.8 ± 2.6 µM | 55.2 ± 3.2 µM
